Data taken from patent US11512203B2, “Water-soluble azo compound or salt thereof, ink and recording medium” (Nippon Kayaku Kabushiki Kaisha, priority 2016, dated 2022).

Assays:
Assay type in all cases: physicochemical
[1] = Xenon light resistance test, inks of Examples 1, 2 (Table 48); settings: xenon 100 klux, 168 hours, 24° C., 60% RH, 55% density gradation, grade of coloring matter persistence rate; for Results from light resistance tests, Glossy paper 3: ink on Brother BP71G; for Results from light resistance tests, Glossy paper 1: ink on Canon Photograph paper, platinum grade (PT-201); for Results from light resistance tests, Glossy paper 4: ink on FUJIFILM Gasai Photo-finishing Pro; for Results from light resistance tests, Glossy paper 2: ink on Seiko Epson Photograph paper Crispia
Procedure: Components shown in Table 47 below were mixed to obtain solutions, which were then subjected to precision filtration through 0.45 μm membrane filters to prepare inks of Examples 1, 2 and Comparative Examples 1, 2. The numerical values in the table are in terms of “parts,” and the symbol “-” means that that component is not included. In Table 47 below, the component […] is indicated as “remainder”.
Ink-jet recording was performed with an ink-jet printer (Canon, Inc., Product name: PIXUS ip7230) to allow each of the inks from Examples 1, 2 and Comparative Examples 1, 2 to be attached on the following glossy papers 1 to 4. Upon performing recording, image patterns were created so that the density can be obtained in a gradation of 6 levels: 100%, 85%, 70%, 55%, 40%, and 25% to obtain a half-tone recorded article. The resulting recorded article was used as a test piece to perform the following tests.
(§1) Glossy paper 1: Canon, Inc., Product name: Canon Photograph paper, platinum grade (PT-201)
(§2) Glossy paper 2: Seiko Epson Corporation, Product name: Photograph paper Crispia
(§3) Glossy paper 3: Brother Industries, Ltd., Product name: BP71G
(§4) Glossy paper 4: FUJIFILM Corporation, Product name: Gasai Photo-finishing Pro
When required, color measurements were performed for a recorded image using a colorimeter (Product name SpectroEye from X-rite, Inc.). Color measurements were performed under the conditions of a density standard of ANSI A, a wide viewing angle of 2 degrees, a light source of D50.
A test piece with a holder was placed in a xenon weatherometer XL75 (Suga Test Instruments Co., Ltd.), and irradiated for 168 hours at a temperature of 24° C., a humidity of 60% RH, and an illuminance of 100 klux. A gradation portion with a density of 55% of each test piece was subjected to color measurements of reflection densities before and after the test. A coloring matter persistence rate was computed from the reflection densities obtained, and evaluation was performed using the following 3-grade criteria.
A coloring matter persistence rate of 85% or more: A A coloring matter persistence rate of 81% or more and less than 85%: B
A coloring matter persistence rate of less than 81%: C
(Formula for Computing Coloring Matter Persistence Rate) Coloring matter persistence rate (%)=(reflection density after test/reflection density before test)×100

[2] = Xenon light resistance test, ink of Example 13 (Table 54); settings: Glossy paper 1 Canon GL-101, 2 Epson Photograph paper <glossy>, 3 FUJIFILM Gasai Photo-finishing Pro
Procedure: An ink of Example 13 was prepared as in Example 1 except that the compound represented by the above formula (113) was used instead of the compound represented by the above formula (101).
Ink-jet recording was performed with an ink-jet printer (Canon, Inc., Product name: PIXUS ip7230) to allow each of the inks from Example 13 and Comparative Examples 1, 2 above to be attached on the following glossy papers 1 to 3. Upon performing recording, image patterns were created so that the density can be obtained in a gradation of 6 levels: 100%, 85%, 70%, 55%, 40%, and 25% to obtain a half-tone recorded article. The resulting recorded article was used as a test piece to perform the following tests.
(§5) Glossy paper 1: Canon, Inc., Product name: Canon Photograph paper, gold grade (GL-101)
Glossy paper 2: Seiko Epson Corporation, Product name: Photograph paper
Glossy paper 3: FUJIFILM Corporation, Product name: Gasai Photo-finishing Pro
(§6) When required, color measurements of a recorded image were performed using a colorimeter (Product name SpectroEye from X-rite, Inc.). Color measurements were performed under the conditions of a density standard of ANSI A, a wide viewing angle of 2 degrees, a light source of D50. […]

[3] = Xenon light resistance test, ink of Example 17 (Table 57)
Procedure: An ink of Example 17 was prepared as in Example 1 except that the compound represented by the above formula (117) was used instead of the compound represented by the above formula (101).
Ink-jet recording was performed with an ink-jet printer (Canon, Inc., Product name: PIXUS ip7230) to allow each of the inks from Example 17 and Comparative Examples 1, 2 above to be attached on the following glossy papers 1, 2. Upon performing recording, image patterns were created so that the density can be obtained in a gradation of 6 levels: 100%, 85%, 70%, 55%, 40%, and 25% to obtain a half-tone recorded article. The resulting recorded article was used as a test piece to perform the following tests.
as §1
Glossy paper 2: FUJIFILM Corporation, Product name: Gasai Photo-finishing Pro
When required, color measurements of a recorded image were performed using a colorimeter (Product name SpectroEye from X-rite, Inc.). Color measurements were performed under the conditions of a density standard of ANSI A, a wide viewing angle of 2 degrees, a light source of D50.
A test piece with a holder was placed in a xenon weatherometer XL75 (Suga Test Instruments Co., Ltd.), and irradiated for 168 hours at a temperature of 24° C., a humidity of 60% RH, and an illuminance of 100 klux. […]

[4] = Xenon light resistance test, ink of Example 4 (Table 50); settings: for each glossy paper (Table 50)
Procedure: An ink of Example 4 was prepared as in Example 1 except that the compound represented by the above formula (104) was used instead of the compound represented by the above formula (101).
Ink-jet recording was performed with an ink-jet printer (Canon, Inc., Product name: PIXUS ip7230) to allow each of the inks from Examples 4 and Comparative Examples 1, 2 above to be attached on the following glossy papers 1 to 4. Upon performing recording, image patterns were created so that the density can be obtained in a gradation of 6 levels: 100%, 85%, 70%, 55%, 40%, and 25% to obtain a half-tone recorded article. The resulting recorded article was used as a test piece to perform the following tests.
as §1, §2, §3, §4
When required, color measurements of a recorded image were performed using a colorimeter (Product name SpectroEye from X-rite, Inc.). Color measurements were performed under the conditions of a density standard of DIN NB, a wide viewing angle of 2 degrees, a light source of D65. […]

[5] = Xenon light resistance test, ink of Example 16 (Table 56)
Procedure: An ink of Example 16 was prepared as in Example 1 except that the compound represented by the above formula (116) was used instead of the compound represented by the above formula (101).
Ink-jet recording was performed with an ink-jet printer (Canon, Inc., Product name: PIXUS ip7230) to allow each of the inks from Example 16 and Comparative Examples 1, 2 above to be attached on the following glossy papers 1 to 4. Upon performing recording, image patterns were created so that the density can be obtained in a gradation of 6 levels: 100%, 85%, 70%, 55%, 40%, and 25% to obtain a half-tone recorded article. The resulting recorded article was used as a test piece to perform the following tests.
as §1
Glossy paper 2: Canon, Inc., Product name: Canon Photograph paper, gold grade (GL-101)
Glossy paper 3: Seiko Epson Corporation, Product name: Photograph paper Crispia
Glossy paper 4: Brother Industries, Ltd., Product name: BP71G
as §6

[6] = Xenon light resistance test, inks of Examples 10 to 12 (Table 53); settings: Glossy paper 1 Canon GL-101, 2 Epson Crispia, 3 Brother BP71G
Procedure: Inks of Examples 10 to 12 were prepared as in Example 1 except that the compounds represented by the above formulae (110) to (112) were used, respectively, instead of the compound represented by the above formula (101).
Ink-jet recording was performed with an ink-jet printer (Canon, Inc., Product name: PIXUS ip7230) to allow each of the inks from Examples 10 to 12 and Comparative Examples 1, 2 above to be attached on the following glossy papers 1 to 3. Upon performing recording, image patterns were created so that the density can be obtained in a gradation of 6 levels: 100%, 85%, 70%, 55%, 40%, and 25% to obtain a half-tone recorded article. The resulting recorded article was used as a test piece to perform the following tests.
as §5, §2, §3, §6

O=S(=O)(O)CCCOc1cc(N=Nc2ccc(Cl)c(S(=O)(=O)O)c2)c(Cl)cc1Nc1nc(NCCO)nc(Nc2cc(Cl)c(N=Nc3ccc(Cl)c(S(=O)(=O)O)c3)cc2OCCCS(=O)(=O)O)n1 [Comparative Example 1]
Results from light resistance tests, Glossy paper 3 [1]: B (A coloring matter persistence rate of 81% or more and less than 85%)
Results from light resistance tests, Glossy paper 1 [1]: B (A coloring matter persistence rate of 81% or more and less than 85%)
Results from light resistance tests, Glossy paper 4 [1]: C (A coloring matter persistence rate of less than 81%)
Results from light resistance tests, Glossy paper 2 [1]: B (A coloring matter persistence rate of 81% or more and less than 85%)

O=S(=O)(O)CCCOc1cc(N=Nc2ccc(Cl)c(S(=O)(=O)O)c2)c(Cl)cc1Nc1nc(Nc2cc(Cl)c(N=Nc3ccc(Cl)c(S(=O)(=O)O)c3)cc2OCCCS(=O)(=O)O)nc(NC(CO)CO)n1 [Example 13]
light resistance results as compared with Comparative Example 2 [2]: better results for each glossy paper

O=S(=O)(O)CCCOc1cc(N=Nc2ccc(Cl)c(S(=O)(=O)O)c2)c(Cl)cc1Nc1nc(Nc2cc(Cl)c(N=Nc3ccc(Cl)c(S(=O)(=O)O)c3)cc2OCCCS(=O)(=O)O)nc(N2CCCC2)n1 [Example 17]
light resistance as compared with Comparative Examples 1, 2 (conclusion) [3]: superior light resistance
light resistance results as compared with Comparative Examples 1, 2 [3]: good results for each glossy paper

COCCCNc1nc(Nc2cc(Cl)c(N=Nc3ccc(Cl)c(S(=O)(=O)O)c3)cc2OCCCS(=O)(=O)O)nc(Nc2cc(Cl)c(N=Nc3ccc(Cl)c(S(=O)(=O)O)c3)cc2OCCCS(=O)(=O)O)n1 [Example 4]
light resistance tests, results compared with Comparative Examples 1, 2 [4]: better results

COc1cc(N=Nc2cccc(S(=O)(=O)O)c2)ccc1NC(=O)Nc1ccc(N=Nc2cccc(S(=O)(=O)O)c2)cc1OC [Comparative Example 2, C.I. Direct Yellow 132]
Results from light resistance tests, Glossy paper 3 [1]: B (A coloring matter persistence rate of 81% or more and less than 85%)
Results from light resistance tests, Glossy paper 1 [1]: B (A coloring matter persistence rate of 81% or more and less than 85%)
Results from light resistance tests, Glossy paper 4 [1]: B (A coloring matter persistence rate of 81% or more and less than 85%)
Results from light resistance tests, Glossy paper 2 [1]: C (A coloring matter persistence rate of less than 81%)

O=S(=O)(O)CCCOc1cc(N=Nc2ccc(Cl)c(S(=O)(=O)O)c2)c(Cl)cc1Nc1nc(NCC2CCCO2)nc(Nc2cc(Cl)c(N=Nc3ccc(Cl)c(S(=O)(=O)O)c3)cc2OCCCS(=O)(=O)O)n1 (stereo not drawn) [Example 16]
light resistance as compared with Comparative Examples 1, 2 (conclusion) [5]: superior light resistance
light resistance results as compared with Comparative Examples 1, 2 [5]: good results for each glossy paper

CCNc1nc(Nc2cc(Cl)c(N=Nc3ccc(Cl)c(S(=O)(=O)O)c3)cc2OCCCS(=O)(=O)O)nc(Nc2cc(Cl)c(N=Nc3ccc(Cl)c(S(=O)(=O)O)c3)cc2OCCCS(=O)(=O)O)n1 [Example 10]
light resistance results as compared with Comparative Example 2 [6]: better results for each glossy paper
